From article PMC8531085, “Proton Pump Inhibitors Inhibit PHOSPHO1 Activity and Matrix Mineralisation In Vitro” (Calcified Tissue International, 2021)
pIC50: −log10 of the molar value. Entries after “also recorded” stand apart in the source; their conditions may differ.

Tests used:
[1] = molecular target: T1, Recombinant human PHOSPHO1 (Homo sapiens, UniProt Q8TCT1); experiment: PHOSPHO1 phosphatase assay (BIOMOL Green, β-glycerol phosphate); assay type: biochemical; details: for Inhibition of PHOSPHO1 activity (in words): all concentrations tested (0-100 µM); for pIC50: recombinant human PHOSPHO1 50 ng, 0-100 µM, 2.5 mM β-glycerol phosphate, read-out: IC50, inhibition of PHOSPHO1 activity
T1 construct: made in house
T1 sequence (Q8TCT1 1-267): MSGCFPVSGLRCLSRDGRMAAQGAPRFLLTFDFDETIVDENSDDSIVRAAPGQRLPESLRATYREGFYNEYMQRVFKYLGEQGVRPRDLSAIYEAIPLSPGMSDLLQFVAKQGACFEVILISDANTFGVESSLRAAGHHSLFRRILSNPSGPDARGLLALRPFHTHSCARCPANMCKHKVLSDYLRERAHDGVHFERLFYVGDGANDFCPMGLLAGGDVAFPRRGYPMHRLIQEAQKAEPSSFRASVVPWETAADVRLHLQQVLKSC
Description: Recombinant human PHOSPHO1 (50 ng) was generated as previously described and incubated with varying concentrations of the aforementioned PPIs and […] in experimental assay buffer (20 mM Tris, 2 mM MgCl2 & 25 μg/ml BSA) at 37 °C for 15 min. Using the BIOMOL® Green assay (Enzo, Exeter, UK), standards (0-2 nM) and samples were then incubated with 2.5 mM β-glycerol phosphate for 30 min at 37 °C with gentle agitation. The reaction was stopped using 100 μl BIOMOL® Green and after being left for 30 min at room temperature, the absorbance was read using spectrophotometry at 630 nm. […] Using the BIOMOL® Green assay, standards (0-2 nM) and samples were then incubated with 0.5 mM p-nitrophenyl phosphate (pNPP) for 30 min at 37 °C with gentle agitation. The reaction was stopped using 100 μl BIOMOL® Green and after being left for 30 min at room temperature, the absorbance was read using spectrophotometry at 630 nm.

[2] = test system: osteoblasts; set-up: method as in PMID 23937530; details: cited from earlier work
[3] = molecular target: T2, recombinant human TNAP (Homo sapiens, UniProt P05186); experiment: TNAP phosphatase assay (BIOMOL Green, pNPP); assay type: biochemical; details: all concentrations tested (0-100 µM)
T2 construct: purchased R&D Systems
T2 sequence (P05186 18-524): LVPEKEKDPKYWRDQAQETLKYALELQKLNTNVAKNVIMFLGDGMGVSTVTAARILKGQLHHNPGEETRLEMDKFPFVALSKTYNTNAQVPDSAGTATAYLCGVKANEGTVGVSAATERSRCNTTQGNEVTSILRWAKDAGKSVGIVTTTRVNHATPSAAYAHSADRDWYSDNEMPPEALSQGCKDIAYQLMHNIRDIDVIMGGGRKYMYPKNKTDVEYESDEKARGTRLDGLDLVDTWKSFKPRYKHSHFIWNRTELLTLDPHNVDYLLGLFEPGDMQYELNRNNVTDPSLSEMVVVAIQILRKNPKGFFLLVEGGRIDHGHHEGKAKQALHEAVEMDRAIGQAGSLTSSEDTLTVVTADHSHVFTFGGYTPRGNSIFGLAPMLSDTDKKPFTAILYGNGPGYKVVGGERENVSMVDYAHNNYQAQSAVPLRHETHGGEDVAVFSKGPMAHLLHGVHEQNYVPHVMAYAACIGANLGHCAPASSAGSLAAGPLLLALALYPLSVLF
Description: Recombinant human PHOSPHO1 (50 ng) was generated as previously described and incubated with varying concentrations of the aforementioned PPIs and H2RAs in experimental assay buffer (20 mM Tris, 2 mM MgCl2 & 25 µg/ml BSA) at 37 °C for 15 min. Using the BIOMOL® Green assay (Enzo, Exeter, UK), standards (0-2 nM) and samples were then incubated with 2.5 mM β-glycerol phosphate for 30 min at 37 °C with gentle agitation. The reaction was stopped using 100 µl BIOMOL® Green and after being left for 30 min at room temperature, the absorbance was read using spectrophotometry at 630 nm. For TNAP, 2 ng recombinant human TNAP (R&D Systems, Abington, UK), was incubated with varying concentrations of the aforementioned PPIs and H2RAs in experimental assay buffer (1 M diethylamine hydrochloride, 1 mM MgCl2 and 20 µM ZnCl2). Using the BIOMOL® Green assay, standards (0-2 nM) and samples were then incubated with 0.5 mM p-nitrophenyl phosphate (pNPP) for 30 min at 37 °C with gentle agitation. The reaction was stopped using 100 µl BIOMOL® Green and after being left for 30 min at room temperature, the absorbance was read using spectrophotometry at 630 nm.

[4] = test system: Primary calvarial osteoblasts; experiment: Primary osteoblast matrix mineralisation (Alizarin red, 28 days); assay type: cell-based, mice
Description: Primary calvarial osteoblasts were obtained from 4-day-old wild-type C57Bl/6 mice. Primary osteoblasts were isolated by sequential enzyme digestion of excised calvarial bones using a four-step process as has previously been described [1 mg/ml collagenase type II in Hanks’ balanced salt solution (HBSS) for 10 min; 1 mg/ml collagenase type II in HBSS for 30 min; 4 mM EDTA for 10 min; 1 mg/ml collagenase type II in HBSS for 30 min]. The first digest was discarded and the cells were re-suspended in growth medium consisting of a-MEM (Invitrogen, Paisley, UK) supplemented with 10% (v/v) FBS and 1% gentamycin (Invitrogen). Osteoblasts were seeded at a density of 1 × 10^4 cells/cm^2 and grown to confluency at which point 2 mM β-glycerophosphate and 50 µg/ml ascorbic acid was added along with a PPI (0–50 µM) as described in the results. Media was changed every 2–3 days for the duration of the 28-day experiments. After 28 days, primary cell cultures were fixed in 4% paraformaldehyde for 5 min at room temperature. Cell monolayers were stained with aqueous 2% (w/v) Alizarin red solution for 5 min at room temperature. The bound stain was solubilised in 10% cetylpyridinium chloride and the optical density of the resultant eluted solution measured by spectrophotometry at 570 nm.

[5] = test system: tissue non-specific alkaline phosphatase (TNAP); set-up: method as in PMID 17227223; details: cited from earlier work
[6] = test system: osteoblast MV; details: cited from earlier work
[7] = molecular target: T1, Recombinant human PHOSPHO1; set-up: method as in PMID 17227223; details: non-competitive; cited from earlier work
[8] = test system: developing chick embryos; set-up: method as in PMID 20053388; details: administration to developing chick embryos; cited from earlier work
[9] = test system: healthy subjects; details: short-term treatment; cited from earlier work
[10] = test system: rodents; set-up: method as in PMID 11589371, PMID 26229922; details: rodents administered the drug; cited from earlier work

Compound	pIC50 [1]	Inhibition of TNAP activity (in words) [3]	Inhibition of PHOSPHO1 activity (in words) [1]	Ability of osteoblasts to mineralise their matrix [2]	Matrix mineralisation (Alizarin red) ([4]; 10 µM)	further results
CN/C(=N/CCSCc1nc[nH]c1C)NC#N [cimetidine]	–	–	no inhibitory effects; also recorded: no inhibition	–	–	–
NC(N)=Nc1nc(CSCCC(N)=NS(N)(=O)=O)cs1 [famotidine]	–	–	no inhibitory effects; also recorded: no inhibition	–	–	–
CNC(=C[N+](=O)[O-])NCCSCc1csc(CN(C)C)n1 [nizatidine]	–	–	no inhibitory effects; also recorded: no inhibition	–	–	–
CNC(=C[N+](=O)[O-])NCCSCc1ccc(CN(C)C)o1 [ranitidine]	–	–	no inhibitory effects; also recorded: no inhibition	–	–	–

Now from value to compound, other results behind:

pIC50 [1]	Inhibition of TNAP activity (in words) [3]	Compound	Inhibition of PHOSPHO1 activity (in words) [1]	Ability of osteoblasts to mineralise their matrix [2]	Matrix mineralisation (Alizarin red) ([4]; 10 µM)	further results
6.14	did not inhibit	COc1ccc2nc([S@@+]([O-])Cc3ncc(C)c(OC)c3C)[nH]c2c1 [esomeprazole]	–	decreased the ability of osteoblasts to mineralise their matrix	significantly inhibited matrix mineralisation	–
5.56	did not inhibit	Cc1c(OCC(F)(F)F)ccnc1C[S+]([O-])c1nc2ccccc2[nH]1 (centres unmarked) [lansoprazole]	–	decreased the ability of osteoblasts to mineralise their matrix	significantly decreased matrix mineralisation	Effect on TNAP activity [5]: no effect; Inhibition of osteoblast MV calcification [6]: 57%; Mineralisation of MVs isolated from osteoblasts [6]: impairs their mineralisation; Matrix mineralisation (Alizarin red) ([4]; 5 µM): significantly decreased matrix mineralisation; Inhibition of recombinant human PHOSPHO1 activity [7]: over 70%; Mineralisation of leg and wing long bones [8]: completely inhibited mineralisation
5.55	did not inhibit	COc1ccc2[nH]c([S+]([O-])Cc3ncc(C)c(OC)c3C)nc2c1 (centres unmarked) [omeprazole]	–	decreased the ability of osteoblasts to mineralise their matrix	significantly inhibited matrix mineralisation	Effect on calcium absorption [9]: not found to have inhibitory effects; Bone mineral content and BMD [10]: reduced bone mineral content and BMD
4.72	did not inhibit	COc1ccnc(C[S+]([O-])c2nc3ccc(OC(F)F)cc3[nH]2)c1OC (centres unmarked) [pantoprazole]	–	–	not sufficient to inhibit matrix mineralisation	Matrix mineralisation (Alizarin red) ([4]; 5 µM): not sufficient to inhibit matrix mineralisation; Matrix mineralisation (Alizarin red) ([4]; 50 µM): significant decrease in matrix mineralisation
